For this test, the target named is T1, hKvβ1.1 1-140 (Homo sapiens, UniProt Q14722).
T1 construct: gene KCNAB1; E. coli BL21(DE3) pRIL; NHS-dye labelled
T1 sequence (Q14722 1-140 isoform Q14722-2): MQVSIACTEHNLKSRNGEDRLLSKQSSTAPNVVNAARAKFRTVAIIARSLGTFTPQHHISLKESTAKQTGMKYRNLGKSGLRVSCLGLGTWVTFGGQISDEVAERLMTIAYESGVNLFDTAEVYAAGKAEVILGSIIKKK
As to the kind of experiment: microscale thermophoresis. Conditions: read-out: binding constant. (In MST a laser heats a spot of the sample, and binding alters the fluorescence response.)

Consider `C=CC1=C(C)C2=Cc3c(C=C)c(C)c4[n]3[Fe]([Cl])[n]3c(c(C)c(CCC(=O)O)c3=CC3=NC(=C4)C(C)=C3CCC(=O)O)=CC1=N2` [hemin], for which the Kd turned out to be 0.098 ± 0.014 µM.
